# According to ChEMBL document CHEMBL4321799, “Development of the First Low Nanomolar Liver Receptor Homolog-1 Agonist through Structure-guided Design” (J Med Chem, 2019):
# Active and inactive are the calls of the source. The rule behind the calls is not given here.
# Columns and labels:
# [1] = target: Steroidogenic factor 1 (Homo sapiens) (UniProt Q13285); assay: Agonist activity at recombinant full length SF1 (unknown origin) transfected in human HeLa cells incubated for 24 hrs by renilla luciferase reporter gene assay; format: cell-based
# [2] = target: Nuclear receptor subfamily 5 group A member 2 (Homo sapiens) (UniProt O00482)
# [3] = tested on: Nuclear receptor subfamily 5 group A member 2 (Homo sapiens), O00482 [T352V]; assay: Activation of human full length LRH1 T352V mutant transfected in human HeLa cells at 10 uM incubated for 24 hrs by renilla luciferase reporter gene assay; format: cell-based
# [4] = tested on: Nuclear receptor subfamily 5 group A member 2 (Homo sapiens), O00482 [M345L]; assay: Activation of human full length LRH1 M345L mutant transfected in human HeLa cells at 10 uM incubated for 24 hrs by renilla luciferase reporter gene assay; format: cell-based
# [5] = tested on: Nuclear receptor subfamily 5 group A member 2 (Homo sapiens), O00482 [H390A]; assay: Activation of human full length LRH1 H390A mutant transfected in human HeLa cells at 10 uM incubated for 24 hrs by renilla luciferase reporter gene assay; format: cell-based
# Mus musculus [6] = species on record: Mus musculus; assay: Effect on Cyp11a1 mRNA expression in LRH1 knock-out mouse enteroids at 1 uM pretreated with TNF-alpha followed incubation with compound for overnight by real-time PCR analysis; format: functional
# Mus musculus [7] = species on record: Mus musculus; assay: Effect on Cyp11b1 mRNA expression in LRH1 knock-out mouse enteroids at 1 uM pretreated with TNF-alpha followed incubation with compound for overnight by real-time PCR analysis; format: functional
# Chain of Nuclear receptor subfamily 5 group A member 2 (Homo sapiens) (O00482 whole entry): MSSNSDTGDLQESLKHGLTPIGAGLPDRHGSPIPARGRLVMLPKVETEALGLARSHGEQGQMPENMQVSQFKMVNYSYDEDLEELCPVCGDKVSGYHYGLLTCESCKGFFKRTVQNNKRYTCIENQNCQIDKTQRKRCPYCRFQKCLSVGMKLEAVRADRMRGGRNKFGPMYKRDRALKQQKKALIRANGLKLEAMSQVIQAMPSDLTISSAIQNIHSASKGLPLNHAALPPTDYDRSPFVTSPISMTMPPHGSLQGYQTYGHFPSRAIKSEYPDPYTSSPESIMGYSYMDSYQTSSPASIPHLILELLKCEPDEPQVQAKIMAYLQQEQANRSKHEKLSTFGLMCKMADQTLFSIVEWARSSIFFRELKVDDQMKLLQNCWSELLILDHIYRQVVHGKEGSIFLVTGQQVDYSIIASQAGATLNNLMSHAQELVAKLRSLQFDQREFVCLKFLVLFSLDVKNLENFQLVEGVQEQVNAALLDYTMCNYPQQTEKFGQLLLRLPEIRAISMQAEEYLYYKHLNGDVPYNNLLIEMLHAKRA
# Chain of Steroidogenic factor 1 (Homo sapiens) (Q13285 whole entry): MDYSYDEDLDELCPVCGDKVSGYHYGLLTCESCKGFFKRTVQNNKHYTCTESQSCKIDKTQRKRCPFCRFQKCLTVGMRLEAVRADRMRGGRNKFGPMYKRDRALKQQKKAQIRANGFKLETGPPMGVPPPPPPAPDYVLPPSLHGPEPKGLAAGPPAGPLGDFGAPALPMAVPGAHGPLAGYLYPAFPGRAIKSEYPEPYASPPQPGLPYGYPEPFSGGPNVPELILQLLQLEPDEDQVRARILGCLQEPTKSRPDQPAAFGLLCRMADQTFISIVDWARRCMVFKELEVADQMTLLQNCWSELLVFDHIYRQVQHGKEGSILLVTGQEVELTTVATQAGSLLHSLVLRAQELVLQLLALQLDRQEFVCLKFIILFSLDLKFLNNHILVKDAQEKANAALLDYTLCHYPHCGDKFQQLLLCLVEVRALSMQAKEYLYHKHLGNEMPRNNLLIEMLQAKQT
# Chain of Nuclear receptor subfamily 5 group A member 2 (Homo sapiens), O00482 [M345L] (O00482 whole entry M345L): as the sequence (O00482 whole entry) above, with M345L counted along it
# Chain of Nuclear receptor subfamily 5 group A member 2 (Homo sapiens), O00482 [H390A] (O00482 whole entry H390A): as the sequence (O00482 whole entry) above, with H390A counted along it
# Chain of Nuclear receptor subfamily 5 group A member 2 (Homo sapiens), O00482 [T352V] (O00482 whole entry T352V): as the sequence (O00482 whole entry) above, with T352V counted along it
SMILES,Activity [1],ΔTm [2] [°C],other results
C=C(c1ccccc1)[C@@]12CC[C@@H](O)[C@@H]1CC(CCCCCC)=C2c1ccccc1,Active,–,–
C=C(c1ccccc1)[C@@]12CC[C@@H](OS(N)(=O)=O)[C@@H]1CC(CCCCCC)=C2c1ccccc1 (racemic),–,3 to 8,–
C=C(c1ccccc1)[C@@]12CC[C@H](NC(C)=O)[C@@H]1CC(CCCCCC)=C2c1ccccc1 (racemic),inactive,–,Activity [3]: Active; Activity [4]: Active; Activity [5]: inactive
C=C(c1ccccc1)[C@@]12CC[C@H](NS(N)(=O)=O)[C@@H]1CC(CCCCCC)=C2c1ccccc1 (racemic),Active,–,Activity (Mus musculus [6]): inactive; Activity (Mus musculus [7]): inactive
C=C(c1ccccc1)[C@@]12CC[C@H](OS(=O)(=O)NC(N)=O)[C@@H]1CC(CCCCCC)=C2c1ccccc1 (racemic),–,3 to 8,–
C=C(c1ccccc1)[C@@]12CC[C@H](OS(N)(=O)=O)[C@@H]1CC(CCCCCC)=C2c1ccccc1 (racemic),Active,3 to 8,–
C=C(c1ccccc1)[C@@]12CC[C@H](n3ccnn3)[C@@H]1CC(CCCCCC)=C2c1ccccc1 (racemic),–,3 to 8,–
